Assay results published in ChEMBL document CHEMBL1201862, “PubChem BioAssay data set” (2004).
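96-well plates; 48 h exposure; 5 concentrations. Endpoints by linear interpolation between flanking doses. Not reached: highest tested concentration assigned. GI50: concentration for 50% inhibition of growth.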 Calls of active or inactive are those of the source. No stated cut-off is given here; in the data, active = GI50 up to about 1.1 µM and inactive = higher.

Tests used:
Assay in all cases: NCI tumour cell line growth inhibition, 48 h
[1] = system: 786-0
[2] = system: A498
[3] = system: A549
[4] = system: CAKI-1
[5] = system: CCRF-CEM
[6] = system: COLO 205
[7] = system: DLD-1
[8] = system: DMS-114
[9] = system: DMS-273
[10] = system: EKVX
[11] = system: HCC 2998
[12] = system: HCT-15
[13] = system: HL-60
[14] = system: HOP-62
[15] = system: HT-29
[16] = system: IGROV-1
[17] = system: K562
[18] = system: KM-20L2
[19] = system: KM12
[20] = system: LOX IMVI
[21] = system: LXFL 529
[22] = system: M14
[23] = system: M19-MEL
[24] = system: MOLT-4
[25] = system: Malme-3M
[26] = system: NCI-H226
[27] = system: NCI-H23
[28] = system: NCI-H460
[29] = system: NCI-H522
[30] = system: OVCAR-3
[31] = system: OVCAR-8
[32] = system: RPMI-8226
[33] = system: RXF 393
[34] = system: SF-268
[35] = system: SF-295
[36] = system: SF-539
[37] = system: SK-MEL-28
[38] = system: SK-MEL-2
[39] = system: SK-MEL-5
[40] = system: SK-OV-3
[41] = system: SN12C
[42] = system: SNB-19
[43] = system: SNB-75
[44] = system: SW-620
[45] = system: TK-10
[46] = system: U-251
[47] = system: UACC-257
[48] = system: UACC-62
[49] = system: UO-31
[50] = system: XF498
[51] = system: ACHN
[52] = system: HCT-116
[53] = system: OVCAR-4
[54] = system: OVCAR-5
[55] = system: SNB-78
[56] = system: SR

O=C(NO)c1ccc([N+](=O)[O-])cc1
GI50 [1]: > 100 µM (inactive)
GI50 [2]: 21.9 µM (inactive)
GI50 [3]: 64.4 µM (inactive)
GI50 [4]: 61 µM (inactive)
GI50 [5]: 26 µM (inactive)
GI50 [6]: 31.1 µM (inactive)
GI50 [7]: 51.3 µM (inactive)
GI50 [8]: 30.7 µM (inactive)
GI50 [9]: 43.8 µM (inactive)
GI50 [10]: 27.1 µM (inactive)
GI50 [11]: 37.8 µM (inactive)
GI50 [12]: 64.3 µM
GI50 [13]: 20.7 µM (inactive)
GI50 [14]: 29.3 µM (inactive)
GI50 [15]: 48 µM (inactive)
GI50 [16]: 49.9 µM (inactive)
GI50 [17]: 31 µM (inactive)
GI50 [18]: 62.2 µM (inactive)
GI50 [19]: 64.9 µM (inactive)
GI50 [20]: 40.8 µM (inactive)
GI50 [21]: 25.1 µM (inactive)
GI50 [22]: 40.9 µM (inactive)
GI50 [23]: 52.2 µM (inactive)
GI50 [24]: 25.8 µM (inactive)
GI50 [25]: 26.9 µM (inactive)
GI50 [26]: 39.5 µM (inactive)
GI50 [27]: 36.6 µM (inactive)
GI50 [28]: 50.2 µM (inactive)
GI50 [29]: 21 µM (inactive)
GI50 [30]: 44.7 µM (inactive)
GI50 [31]: 25.2 µM (inactive)
GI50 [32]: 27.2 µM (inactive)
GI50 [33]: 18.3 µM (inactive)
GI50 [34]: > 100 µM (inactive)
GI50 [35]: 42.1 µM (inactive)
GI50 [36]: 24.5 µM (inactive)
GI50 [37]: 23.4 µM (inactive)
GI50 [38]: 32.1 µM (inactive)
GI50 [39]: 70.3 µM (inactive)
GI50 [40]: > 100 µM (inactive)
GI50 [41]: 94.2 µM (inactive)
GI50 [42]: 46.2 µM (inactive)
GI50 [43]: 23.9 µM (inactive)
GI50 [44]: 50.8 µM (inactive)
GI50 [45]: 37.3 µM (inactive)
GI50 [46]: 43 µM (inactive)
GI50 [47]: 28.6 µM (inactive)
GI50 [48]: 19.7 µM (inactive)
GI50 [49]: 24.8 µM (inactive)
GI50 [50]: 73.1 µM (inactive)

O=[N+]([O-])c1ccc(-c2cnc3ccccn23)cc1
GI50 [1]: > 100 µM (inactive)
GI50 [2]: > 100 µM (inactive)
GI50 [3]: > 100 µM (inactive)
GI50 [51]: > 100 µM (inactive)
GI50 [4]: 62.4 µM (inactive)
GI50 [5]: > 100 µM (inactive)
GI50 [6]: > 100 µM (inactive)
GI50 [8]: 48.6 µM (inactive)
GI50 [9]: > 100 µM (inactive)
GI50 [10]: > 100 µM (inactive)
GI50 [52]: > 100 µM (inactive)
GI50 [12]: > 100 µM
GI50 [13]: 44.2 µM (inactive)
GI50 [14]: > 100 µM (inactive)
GI50 [15]: > 100 µM (inactive)
GI50 [17]: > 100 µM (inactive)
GI50 [18]: > 100 µM (inactive)
GI50 [19]: > 100 µM (inactive)
GI50 [20]: > 100 µM (inactive)
GI50 [21]: > 100 µM (inactive)
GI50 [22]: > 100 µM (inactive)
GI50 [23]: > 100 µM (inactive)
GI50 [24]: > 100 µM (inactive)
GI50 [25]: > 100 µM (inactive)
GI50 [26]: > 100 µM (inactive)
GI50 [27]: > 100 µM (inactive)
GI50 [28]: > 100 µM (inactive)
GI50 [29]: > 100 µM (inactive)
GI50 [30]: > 100 µM (inactive)
GI50 [53]: > 100 µM (inactive)
GI50 [54]: > 100 µM (inactive)
GI50 [31]: > 100 µM (inactive)
GI50 [32]: 52.6 µM (inactive)
GI50 [33]: 24.2 µM (inactive)
GI50 [34]: > 100 µM (inactive)
GI50 [35]: > 100 µM (inactive)
GI50 [36]: > 100 µM (inactive)
GI50 [37]: > 100 µM (inactive)
GI50 [38]: > 100 µM (inactive)
GI50 [39]: > 100 µM (inactive)
GI50 [40]: 62.5 µM (inactive)
GI50 [41]: 61.2 µM (inactive)
GI50 [42]: > 100 µM (inactive)
GI50 [43]: 30.6 µM (inactive)
GI50 [55]: > 100 µM (inactive)
GI50 [56]: 84.7 µM (inactive)
GI50 [44]: > 100 µM (inactive)
GI50 [46]: > 100 µM (inactive)
GI50 [47]: > 100 µM (inactive)
GI50 [48]: > 100 µM (inactive)
GI50 [49]: > 100 µM (inactive)
GI50 [50]: > 100 µM (inactive)
